Source: ChEMBL document CHEMBL2401633, “tert-Butyl 1,5-bis(4-(benzo[d]isothiazol-3-yl)piperazin-1-yl)-1,5-dioxopentan-2-ylcarbamate urea/thiourea derivatives as potent H+/K(+)-ATPase inhibitors” (Bioorg Med Chem Lett, 2013)

Legend:
[1] = Inhibition of sheep gastric H(+)/K(+)-ATPase-mediated inorganic phosphate liberation after 15 mins by Fiske Subbarow method in presence of ATP; assay type: tissue-based, Ovis aries, Stomach
Ovis aries = species on record: Ovis aries; test: Ratio of omeprazole IC50 to compound IC50 for sheep gastric H(+)/K(+) ATPase; assay type: tissue-based; conditions: Stomach

SMILES | IC50 ([1]; read-out: IC50) [µM] | further results
O=C(Nc1cccc(Cl)c1)NC(CCC(=O)N1CCN(c2nsc3ccccc23)CC1)C(=O)N1CCN(c2nsc3ccccc23)CC1 (configuration not stated) | 56 | –
O=C(Nc1ccccc1)NC(CCC(=O)N1CCN(c2nsc3ccccc23)CC1)C(=O)N1CCN(c2nsc3ccccc23)CC1 (configuration not stated) | 94 | –
O=C(Nc1cccc(Br)c1)NC(CCC(=O)N1CCN(c2nsc3ccccc23)CC1)C(=O)N1CCN(c2nsc3ccccc23)CC1 (configuration not stated) | 50 | –
COc1ccc(NC(=S)NC(CCC(=O)N2CCN(c3nsc4ccccc34)CC2)C(=O)N2CCN(c3nsc4ccccc34)CC2)cc1 (configuration not stated) | 5.4 | Ratio IC50 (Ovis aries): 15
O=C(CCC(NC(=S)Nc1ccccc1)C(=O)N1CCN(c2nsc3ccccc23)CC1)N1CCN(c2nsc3ccccc23)CC1 (configuration not stated) | 90 | –
O=C(CCC(NC(=S)Nc1ccc(Cl)cc1)C(=O)N1CCN(c2nsc3ccccc23)CC1)N1CCN(c2nsc3ccccc23)CC1 (configuration not stated) | 54 | –
O=C(CCC(NC(=S)Nc1cccc(Br)c1)C(=O)N1CCN(c2nsc3ccccc23)CC1)N1CCN(c2nsc3ccccc23)CC1 (configuration not stated) | 48 | –
CC(C)(C)OC(=O)NC(CCC(=O)N1CCN(c2nsc3ccccc23)CC1)C(=O)N1CCN(c2nsc3ccccc23)CC1 (configuration not stated) | – | IC50 [1]: Not Active
O=C(Nc1cccc(F)c1)NC(CCC(=O)N1CCN(c2nsc3ccccc23)CC1)C(=O)N1CCN(c2nsc3ccccc23)CC1 (configuration not stated) | 78 | –
O=C(Nc1ccc(F)cc1)NC(CCC(=O)N1CCN(c2nsc3ccccc23)CC1)C(=O)N1CCN(c2nsc3ccccc23)CC1 (configuration not stated) | 72 | –
CC(C)(C)OC(=O)NC(CCC(=O)OCc1ccccc1)C(=O)O (configuration not stated) | – | IC50 [1]: Not Active
COc1ccccc1NC(=S)NC(CCC(=O)N1CCN(c2nsc3ccccc23)CC1)C(=O)N1CCN(c2nsc3ccccc23)CC1 (configuration not stated) | 17 | –
CC(C)(C)OC(=O)NC(CCC(=O)OCc1ccccc1)C(=O)N1CCN(c2nsc3ccccc23)CC1 (configuration not stated) | – | IC50 [1]: Not Active
COc1cccc(NC(=S)NC(CCC(=O)N2CCN(c3nsc4ccccc34)CC2)C(=O)N2CCN(c3nsc4ccccc34)CC2)c1 (configuration not stated) | 10 | –
COc1ccccc1NC(=O)NC(CCC(=O)N1CCN(c2nsc3ccccc23)CC1)C(=O)N1CCN(c2nsc3ccccc23)CC1 (configuration not stated) | 19 | –
O=C(CCC(NC(=S)Nc1ccc(F)cc1)C(=O)N1CCN(c2nsc3ccccc23)CC1)N1CCN(c2nsc3ccccc23)CC1 (configuration not stated) | 70 | –
CC(C)(C)OC(=O)NC(CCC(=O)O)C(=O)N1CCN(c2nsc3ccccc23)CC1 (configuration not stated) | – | IC50 [1]: Not Active
O=C(Nc1ccc(Br)cc1)NC(CCC(=O)N1CCN(c2nsc3ccccc23)CC1)C(=O)N1CCN(c2nsc3ccccc23)CC1 (configuration not stated) | 46 | –
O=C(Nc1ccccc1F)NC(CCC(=O)N1CCN(c2nsc3ccccc23)CC1)C(=O)N1CCN(c2nsc3ccccc23)CC1 (configuration not stated) | 80 | –

Continued, in another order:

IC50 ([1]; read-out: IC50) [µM] | SMILES | further results
74 | O=C(CCC(NC(=S)Nc1ccccc1F)C(=O)N1CCN(c2nsc3ccccc23)CC1)N1CCN(c2nsc3ccccc23)CC1 (configuration not stated) | –
60 | O=C(CCC(NC(=S)Nc1cccc(Cl)c1)C(=O)N1CCN(c2nsc3ccccc23)CC1)N1CCN(c2nsc3ccccc23)CC1 (configuration not stated) | –
11 | COc1cccc(NC(=O)NC(CCC(=O)N2CCN(c3nsc4ccccc34)CC2)C(=O)N2CCN(c3nsc4ccccc34)CC2)c1 (configuration not stated) | –
44 | O=C(CCC(NC(=S)Nc1ccccc1Br)C(=O)N1CCN(c2nsc3ccccc23)CC1)N1CCN(c2nsc3ccccc23)CC1 (configuration not stated) | –
52 | O=C(Nc1ccc(Cl)cc1)NC(CCC(=O)N1CCN(c2nsc3ccccc23)CC1)C(=O)N1CCN(c2nsc3ccccc23)CC1 (configuration not stated) | –
6.2 | COc1ccc(NC(=O)NC(CCC(=O)N2CCN(c3nsc4ccccc34)CC2)C(=O)N2CCN(c3nsc4ccccc34)CC2)cc1 (configuration not stated) | –
84 | COc1ccc2[nH]c([S+]([O-])Cc3ncc(C)c(OC)c3C)nc2c1 (configuration not stated) [OMEPRAZOLE] | –
